Consider four molecules from publication PMC7865387, “Artemether-Loaded Zein Nanoparticles: An Innovative Intravenous Dosage Form for the Management of Severe Malaria” (International Journal of Molecular Sciences, 2021).

Data set [1] in a line: In vitro release study (sample and separate method). Particulars: PBS pH 7.4, 37 °C, sink conditions; n = 3. It counts as physicochemical. Here is the method:
The dissolution profile of artemether-loaded zein nanoparticles was studied by the “sample and separate” method. In brief, artemether-loaded zein nanoparticle powders containing 6 mg artemether were put in 100 mL phosphate buffered saline (PBS) of pH 7.4. The study was performed under sink conditions at 37 ± 0.5 °C with 150 rpm stirring. The beaker was covered with parafilm to minimize water loss via evaporation. In total, 1 mL samples were withdrawn at selected time points (1/12, 1/6, 1/4, 1/2, 1, 2, 3, 4, 5, 6, 24 h). Samples were centrifuged at 10,800 rpm for 30 min and the supernatants were analyzed by HPLC in the same way as drug content. Then, 1 mL PBS at 37 °C was added after each sampling to maintain sink condition. The experiment was repeated 3 times to ensure consistency. Raw artemether was used as control. Mean values and standard deviations were subsequently calculated.

Another data set deals with red blood cells (RBCs). Put plainly: In vitro hemolytic test. It counts as cell-based. Particulars: artemether 2 mg/mL in 5% DMSO; 4% v/v rat RBCs, 37 °C, 1 h; positive control Triton X 100. Here is the method:
This test was performed to examine the hemolytic potential of artemether-loaded zein nanoparticles and the formulation ingredients on red blood cells (RBCs). Freshly collected rat blood was centrifuged at 1500× g for 10 min at 4 °C. The plasma was collected for other purpose. The remaining RBCs were washed with PBS and then centrifuged at 1500× g at 4 °C for 5 min. After two repeats of such procedures, the RBCs were diluted 25 times with PBS to make a 4% v/v RBCs dispersion. Such RBCs were kept at 4 °C and used within 24 h. The impact of artemether-loaded zein nanoparticles containing 2 mg/mL artemether, raw artemether in 5% v/v aqueous DMSO solution (2 mg/mL), 5% v/v aqueous DMSO solution, sodium caseinate (7.5 mg/mL) solution, artemether (2 mg/mL) together with sodium caseinate (7.5 mg/mL) solution was assessed. PBS and 1% v/v Triton-X 100 solution were assessed by adding 1 mL of the test solutions each to 1 mL of the 4% v/v RBCs dispersion. Each sample was incubated with the RBCs at 37 °C for 1 h and then centrifuged at 1500× g for 10 min. The absorbance of the supernatant was taken at 550 nm with U-2900 UV spectrophotometer (Hitachi, Japan). Percentage haemolysis was calculated as follows:(3) Hemolysis (%)=AbsorbanceTest group−AbsorbancePBS/AbsorbanceTriton−X100−AbsorbancePBS×100%

Details of data set [2]: method as in PMID 21914160. Particulars: intravenous artesunate, clinical practice; cited from earlier work.
For data set [3] the following is noted: cited from earlier work.

With `CO[C@H]1O[C@@H]2O[C@@]3(C)CC[C@H]4[C@H](C)CC[C@@H]([C@H]1C)[C@@]24OO3` [artemether], the “artemether released / dissolved within 5 h” value in data set [1] is on record as “almost all”. In addition, the “hemolytic effect (in words)” value with red blood cells (RBCs) was “destroyed RBCs as much as the positive control”.

For the molecule `C[C@H]1[C@H](OC(=O)CCC(=O)O)O[C@@H]2O[C@@]3(C)CC[C@H]4[C@H](C)CC[C@@H]1[C@@]24OO3` [artesunate], the half-life result in data set [2] is given as “less than 1 h”.

Consider Zein, for which, in data set [3], the “isoelectric point (pI)” value was 6.2.

On to sodium caseinate, for which the “isoelectric point (pI)” value in data set [3] is recorded as 4.5.
